Test results from publication PMC4188576 (PLoS ONE, 2014).

How the values were obtained:
[1] = molecular target: T1, Na,K-ATPase α1 isoform (Mus musculus, UniProt Q8VDN2); assay: Na,K-ATPase activity of mouse kidney membranes, dose-response; type: biochemical
T1 construct: gene Atp1a1; native mouse kidney membrane preparation, primarily α1 isoform

[2] = molecular target: T2, Pdr5p (Saccharomyces cerevisiae, UniProt P33302); assay: ATPase (Pi release) assay on Pdr5p-overexpressing plasma membranes, oligomycin-sensitive activity; type: biochemical
T2 construct: gene PDR5; plasma membranes containing the overexpressed Pdr5p (strain AD124567)
T2 sequence (P33302 whole entry): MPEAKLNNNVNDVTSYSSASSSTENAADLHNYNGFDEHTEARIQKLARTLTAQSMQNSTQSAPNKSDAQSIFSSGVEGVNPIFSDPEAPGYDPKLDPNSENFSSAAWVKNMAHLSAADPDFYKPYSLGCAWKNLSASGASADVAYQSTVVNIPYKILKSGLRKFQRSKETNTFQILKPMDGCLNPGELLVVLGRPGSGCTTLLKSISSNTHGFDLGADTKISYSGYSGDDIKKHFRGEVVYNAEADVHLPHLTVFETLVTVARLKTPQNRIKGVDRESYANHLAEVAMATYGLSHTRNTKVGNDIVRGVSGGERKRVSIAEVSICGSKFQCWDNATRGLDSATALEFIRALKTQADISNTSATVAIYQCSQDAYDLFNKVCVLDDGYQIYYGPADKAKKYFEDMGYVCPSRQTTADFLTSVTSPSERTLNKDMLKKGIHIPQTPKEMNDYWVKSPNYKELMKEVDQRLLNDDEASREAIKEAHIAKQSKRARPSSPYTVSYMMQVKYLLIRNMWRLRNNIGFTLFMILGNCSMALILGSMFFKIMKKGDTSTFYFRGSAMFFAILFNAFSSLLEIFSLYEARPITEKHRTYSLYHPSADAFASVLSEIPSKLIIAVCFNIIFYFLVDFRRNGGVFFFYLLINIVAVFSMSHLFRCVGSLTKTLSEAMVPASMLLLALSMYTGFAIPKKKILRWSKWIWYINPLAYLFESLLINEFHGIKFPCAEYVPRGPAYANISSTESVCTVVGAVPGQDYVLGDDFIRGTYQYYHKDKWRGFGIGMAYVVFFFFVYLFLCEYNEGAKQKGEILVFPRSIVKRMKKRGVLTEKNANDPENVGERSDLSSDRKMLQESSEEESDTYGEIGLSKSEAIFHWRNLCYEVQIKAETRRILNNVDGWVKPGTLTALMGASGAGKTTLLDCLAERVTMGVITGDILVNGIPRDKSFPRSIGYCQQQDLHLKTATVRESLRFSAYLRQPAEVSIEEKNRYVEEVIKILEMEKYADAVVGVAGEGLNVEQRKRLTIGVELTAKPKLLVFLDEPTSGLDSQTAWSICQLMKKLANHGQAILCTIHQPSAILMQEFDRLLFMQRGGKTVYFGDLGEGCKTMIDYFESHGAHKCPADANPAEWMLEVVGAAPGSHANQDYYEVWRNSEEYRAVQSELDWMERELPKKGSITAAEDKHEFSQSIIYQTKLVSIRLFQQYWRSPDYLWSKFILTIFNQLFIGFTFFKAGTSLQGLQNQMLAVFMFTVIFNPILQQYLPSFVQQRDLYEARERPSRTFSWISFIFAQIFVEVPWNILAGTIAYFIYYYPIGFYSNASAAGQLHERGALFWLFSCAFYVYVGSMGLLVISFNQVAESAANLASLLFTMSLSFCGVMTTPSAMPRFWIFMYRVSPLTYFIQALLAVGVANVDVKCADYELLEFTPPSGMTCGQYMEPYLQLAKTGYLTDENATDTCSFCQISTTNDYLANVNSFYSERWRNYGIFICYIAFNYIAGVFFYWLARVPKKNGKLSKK

[3] = molecular target: T3, Na,K-ATPase α1 isoform (Homo sapiens, UniProt P05023); assay: competition of 3H-ouabain radioligand binding on HeLa cells
T3 construct: gene ATP1A1; endogenous enzyme on HeLa cell monolayers

SMILES: C[C@H]1O[C@@H](O[C@H]2[C@@H](O)C[C@H](O[C@H]3[C@@H](O)C[C@H](O[C@H]4CC[C@@]5(C)[C@H](CC[C@@H]6[C@@H]5C[C@@H](O)[C@]5(C)[C@@H](C7=CC(=O)O/C7=C\c7ccccc7)CC[C@]65O)C4)O[C@@H]3C)O[C@@H]2C)C[C@H](O)[C@@H]1O [21-BD, 21-benzylidene digoxin]
- Na,K-ATPase activity of mouse kidney membranes, dose-response [1]: Similarly, 21-BD inhibited the mouse kidney Na,K-ATPase with similar kinetics
- IC50 [2]: 1250 ± 360 nM
- competition of 3H-ouabain radioligand binding on HeLa cells [3]: 21-BD significantly competed with ouabain binding at concentrations in the µM range
